Laboratory results taken from PubChem BioAssay (NCI).
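Values below derive from 48-hour exposures of cells grown in 96-well plates, with endpoints linearly interpolated between the two concentrations bracketing the appropriate inhibition level. GI50 = concentration required for 50% inhibition of growth. Definition used: TGI = concentration required for complete inhibition of growth.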

How the values were obtained:
Assay in all cases: NCI anticancer screen, dose series, 48 h
A498 renal = tested on: A498 renal
PC-3 prostate = tested on: PC-3 prostate
UACC-62 melanoma = tested on: UACC-62 melanoma
MDA-MB-435 = tested on: MDA-MB-435
UACC-257 melanoma = tested on: UACC-257 melanoma
HT29 colon = tested on: HT29 colon
BT-549 breast = tested on: BT-549 breast
SF-268 CNS = tested on: SF-268 CNS
HOP-62 NSCLC = tested on: HOP-62 NSCLC

| SMILES | TGI (A498 renal) | TGI (PC-3 prostate) | TGI (UACC-62 melanoma) | TGI (MDA-MB-435) | TGI (UACC-257 melanoma) | TGI (HT29 colon) | TGI (BT-549 breast) | TGI (SF-268 CNS) | TGI (HOP-62 NSCLC) | GI50 (HT29 colon) | GI50 (A498 renal) | GI50 (SF-268 CNS) | GI50 (HOP-62 NSCLC) | GI50 (PC-3 prostate) | GI50 (UACC-62 melanoma) | GI50 (MDA-MB-435) | GI50 (UACC-257 melanoma) |
| --- | --- | --- | --- | --- | --- | --- | --- | --- | --- | --- | --- | --- | --- | --- | --- | --- | --- |
| CCC(NC1=NCCO1)c1cccs1 (stereo not drawn) | 42.5 µM | 33.9 µM | 30.8 µM | 27.6 µM | 35.8 µM | 63.9 µM | 37.7 µM | – | – | – | – | – | – | – | – | – | – |
| Cc1ccc(-n2cc([Si](C)(C)C)nn2)s1 | > 100 µM | > 100 µM | > 100 µM | > 100 µM | > 100 µM | > 100 µM | > 100 µM | > 100 µM | – | – | – | – | – | – | – | – | – |
| CCOC(=O)N1CCC(=C2c3ccc(Cl)cc3CCc3cccnc32)CC1 | 8.12 µM | 25.7 µM | 18.9 µM | 24.9 µM | 29.6 µM | 16.9 µM | – | – | 36.3 µM | – | – | – | – | – | – | – | – |
| Cc1ccc(N=C2C(=Nc3ccc(C)cc3)N(c3ccc(C)cc3)C(=S)N2C(=O)c2ccccc2)cc1 | – | > 100 µM | > 100 µM | > 100 µM | – | > 100 µM | > 100 µM | > 100 µM | > 100 µM | – | – | – | – | – | – | – | – |
| C=C(C)CNC(=S)N(N)c1ccc2ccccc2c1 | – | > 100 µM | 76.8 µM | > 100 µM | > 100 µM | > 100 µM | > 100 µM | > 100 µM | > 100 µM | – | – | – | – | – | – | – | – |
| O=C1CC2CCC(C1)S2=O (stereo not drawn) | – | > 100 µM | > 100 µM | > 100 µM | > 100 µM | > 100 µM | > 100 µM | > 100 µM | > 100 µM | – | – | – | – | – | – | – | – |
| CCOC(=O)C(NC(=O)OC(C)(C)C)C(=O)OCC | – | > 100 µM | > 100 µM | > 100 µM | > 100 µM | > 100 µM | > 100 µM | > 100 µM | > 100 µM | – | – | – | – | – | – | – | – |
| CC(C)(C)[Si](C)(C)OCC1OC(n2cnc3c(=O)[nH]c(N)nc32)C(O[Si](C)(C)C(C)(C)C)C1O[Si](C)(C)C(C)(C)C (stereo not drawn) | 6.21 µM | 9.79 µM | 4.3 µM | 2.88 µM | 9.4 µM | 4.16 µM | – | 7.16 µM | 7.73 µM | – | – | – | – | – | – | – | – |
| CC(=O)Nc1ccccc1NC1CC(C)N(c2ccccc2)N1C(C)=O (stereo not drawn) | – | > 10 µM | > 10 µM | > 10 µM | > 10 µM | > 10 µM | – | > 10 µM | > 10 µM | – | – | – | – | – | – | – | – |
| O=C(O)CCC(NC(=O)c1ccc(Nc2nc3cc(C(F)(F)F)ccc3nc2C(=O)O)cc1)C(=O)O (stereo not drawn) | > 100 µM | > 100 µM | > 100 µM | > 100 µM | > 100 µM | > 100 µM | – | > 100 µM | > 100 µM | – | – | – | – | – | – | – | – |
| C=C1CN(C2=NCCO2)C1 | – | > 100 µM | > 100 µM | > 100 µM | > 100 µM | > 100 µM | > 100 µM | > 100 µM | > 100 µM | – | – | – | – | – | – | – | – |
| O=C(CSc1nc2ccccc2c(=O)n1-c1ccccc1)N=Nc1c(O)[nH]c2ccc(F)cc12 | – | 3.77 µM | 4.82 µM | > 100 µM | 6 µM | 6.96 µM | – | 4.93 µM | 6.77 µM | – | – | – | – | – | – | – | – |
| C=C(c1ccccc1)c1ccccc1-c1cc(-c2ccccc2)cc(-c2ccccc2)n1 | > 100 µM | > 100 µM | > 100 µM | > 100 µM | > 100 µM | > 100 µM | – | > 100 µM | > 100 µM | – | – | – | – | – | – | – | – |
| Cc1ccc([N+](=O)[O-])c2c(NCC(O)CO)ccnc12 (stereo not drawn) | – | > 100 µM | > 100 µM | > 100 µM | > 100 µM | > 100 µM | > 100 µM | > 100 µM | > 100 µM | – | – | – | – | – | – | – | – |
| COc1cc(Br)c(CC2C3=C(CCN2C(=O)C2CCC2)CC(=O)CC3)cc1O (stereo not drawn) | – | > 100 µM | 36.3 µM | 35.7 µM | > 100 µM | 71.6 µM | – | > 100 µM | > 100 µM | – | – | – | – | – | – | – | – |
| CCOC(=O)c1c(-c2cccc3ccccc23)c(C#N)c(=S)n(C2OC(COC(C)=O)C(OC(C)=O)C(OC(C)=O)C2OC(C)=O)c1C (stereo not drawn) | > 100 µM | > 100 µM | > 100 µM | > 100 µM | > 100 µM | > 100 µM | – | > 100 µM | > 100 µM | – | – | – | – | – | – | – | – |
| [N-]=[N+]=C(C(=O)N1CCCC1=O)S(=O)(=O)c1ccccc1 | – | > 100 µM | > 100 µM | > 100 µM | > 100 µM | – | > 100 µM | > 100 µM | > 100 µM | – | – | – | – | – | – | – | – |
| Cc1nc2ccccc2c(/C=C/c2ccc(Cl)cc2)c1C(=O)/C=C/c1ccccc1 | – | – | – | – | – | > 100 µM | – | – | – | 1.58 µM | – | – | – | – | – | – | – |
| COc1ccc(-c2nn(-c3ccc(NC(=O)Nc4ccc(Cl)c(C(F)(F)F)c4)cc3)cc2-c2ccncc2)cc1Cl | 5.18 µM | 5.49 µM | 2.75 µM | 4.8 µM | 4.91 µM | 4.57 µM | – | 19.5 µM | 4.45 µM | 1.65 µM | 1.62 µM | 2.8 µM | 1.81 µM | 0.793 µM | 1.33 µM | 1.79 µM | 1.94 µM |
| CN(Cc1cc(Cl)c(Cl)cc1NC(=O)CN)[C@H]1CCCC[C@@H]1N1CCCC1 | 41.5 µM | > 100 µM | 31.5 µM | 32.9 µM | 31.7 µM | 47.9 µM | – | > 100 µM | > 100 µM | – | – | – | – | – | – | – | – |
| Cc1ccc(NC(=O)CSC(N)=O)cc1C | > 100 µM | > 100 µM | > 100 µM | > 100 µM | > 100 µM | > 100 µM | – | > 100 µM | > 100 µM | – | – | – | – | – | – | – | – |
